Among the data in patent US9605005B2, “Alkynyl alcohols and methods of use” (Genentech, Inc., priority 2013, dated 2017) are IC50 and Ki values, retold here.

The subject of assay [1] is p52 (NF-kB2) nuclear translocation, HeLa cells. In words: p52 (NF-kB2) nuclear translocation assay in HeLa cells (non-classical NF-kB signaling, anti-lymphotoxin beta receptor antibody stimulated). The format is cell-based. To be noted: Homo sapiens, 100 ng/mL anti-lymphotoxin beta receptor antibody for 5 hours, read-out: p52 HeLa Transloc Assay (IC50). A digest of the protocol: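 HeLa cells in 10% FBS medium were treated with compound (0.2% DMSO final) and stimulated with 100 ng/mL anti-lymphotoxin beta receptor antibody for 5 h. Fixed cells were immunostained for p52 and imaged with DRAQ5 nuclear stain. Translocation is the nuclear to cytoplasmic intensity ratio, and IC50 values are in micromolar.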

In assay [2] the target is nuclear factor-kappa B (NF-kB)-inducing kinase (NIK) (Homo sapiens (Human), UniProt Q99558). In words: NIK enzyme inhibition assay (Transcreener ADP, NIK ADP-FP). To be noted: purified NIK 0.5 nM, 10 μM ATP, fluorescence polarization; read-out: NIK ADP-FP (Ki μM). The format is biochemical. A general note: Fluorescence polarisation rises when a labelled molecule tumbles more slowly, as on binding a larger partner.

The test system of assay [3] is REL-A (p65) nuclear translocation, HeLa cells. In words: REL-A (p65) nuclear translocation assay in HeLa cells (classical NF-kB signaling, TNF-α stimulated). The format is cell-based. To be noted: Homo sapiens, 0.5 h; HeLa cells, 10 ng/mL TNF-α for 30 minutes; read-out: REL-A HeLa Transloc Assay (IC50). Put shortly: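 HeLa cells were exposed to test compounds at various concentrations (0.2% DMSO final) in medium with 10% fetal bovine serum for 4.5 hours, then stimulated for 30 minutes with 10 ng/mL TNF-α. After fixation in 4% paraformaldehyde, 0.1% Triton X-100 permeabilization and staining with 400 ng/mL anti-REL-A (p65) antibody, Alexa488 secondary and DRAQ5, Opera imaging gave nuclear-to-cytoplasmic signal ratios to calculate IC50.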

nuclear factor-kappa B (NF-kB)-inducing kinase (NIK), sequence (Q99558 whole entry): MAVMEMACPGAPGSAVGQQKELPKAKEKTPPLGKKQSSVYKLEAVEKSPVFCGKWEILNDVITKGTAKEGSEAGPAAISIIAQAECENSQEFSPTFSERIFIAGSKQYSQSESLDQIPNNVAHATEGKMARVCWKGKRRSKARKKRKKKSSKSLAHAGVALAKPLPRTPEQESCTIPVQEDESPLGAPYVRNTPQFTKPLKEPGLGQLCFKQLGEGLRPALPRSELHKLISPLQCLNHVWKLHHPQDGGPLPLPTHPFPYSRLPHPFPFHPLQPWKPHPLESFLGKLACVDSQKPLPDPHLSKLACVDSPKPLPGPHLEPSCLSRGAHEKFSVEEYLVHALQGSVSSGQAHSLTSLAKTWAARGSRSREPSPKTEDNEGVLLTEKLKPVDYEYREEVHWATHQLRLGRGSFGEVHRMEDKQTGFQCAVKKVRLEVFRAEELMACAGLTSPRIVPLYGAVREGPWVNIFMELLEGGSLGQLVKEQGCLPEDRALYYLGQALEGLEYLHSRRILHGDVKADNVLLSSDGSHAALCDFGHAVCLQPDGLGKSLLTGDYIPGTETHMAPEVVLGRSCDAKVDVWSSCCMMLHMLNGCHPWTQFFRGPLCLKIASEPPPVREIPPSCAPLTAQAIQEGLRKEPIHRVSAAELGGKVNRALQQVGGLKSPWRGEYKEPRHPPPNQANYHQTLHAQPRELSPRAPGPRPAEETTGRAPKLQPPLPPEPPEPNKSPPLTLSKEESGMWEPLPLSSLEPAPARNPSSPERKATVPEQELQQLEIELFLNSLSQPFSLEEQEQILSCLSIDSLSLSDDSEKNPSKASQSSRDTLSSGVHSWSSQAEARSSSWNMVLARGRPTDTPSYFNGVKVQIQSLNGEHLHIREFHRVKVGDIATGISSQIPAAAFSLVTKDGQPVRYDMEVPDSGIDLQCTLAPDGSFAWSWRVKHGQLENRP

`Cc1cc2c(C(N)=O)nn(-c3cccc(C#C[C@]4(O)CCN(C)C4=O)c3)c2cn1` [Compound 149, 1-[3-[2-[(3R)-3-hydroxy-1-methyl-2-oxo-pyrrolidin-3-yl]ethynyl]phenyl]-5-methyl-pyrazolo[3,4-c]pyridine-3-carboxamide]: the IC50 was determined as 215 nM in assay [1] and 20000 nM in assay [3]. Also, the Ki in assay [2] came to 0.00108 µM.

For orientation: IC50 means the concentration that gives 50% inhibition. The term Ki denotes a dissociation constant, usually derived from enzyme kinetics or from competition with a known ligand.
